Experiments:
Sprague-Dawley (SD) rats = assay: Urinary glucose excretion test in rats; assay type: in vivo, rat; conditions: male SD rats, 30 mg/kg oral gavage, urine collected for 24 hours; daily amount of glucose excreted per individual
Description: 2. Urinary Glucose Excretion Test in Rats Test Compounds:
Compounds described in the above examples were used for the urinary glucose excretion test in rats.
6-week-old male Sprague-Dawley (SD) rats were housed in individual metabolic cages with free access to food and water from 2 days prior to the experiment. On the morning of the experiment, rats were administered vehicle (0.2% carboxymethyl cellulose solution containing 0.2% Tween80) or test compounds (30 mg/kg) by oral gavage at a volume of 10 ml/kg. Then, urine of the rat was collected for 24 hours, and the urine volume was measured. Subsequently, the glucose concentration in urine was quantified using the enzymatic assay kit and the daily amount of glucose excreted in urine per individual was calculated.

human SGLT2 = molecular target: T1, human SGLT2 (Homo sapiens, UniProt P31639); assay: Assay for SGLT2 inhibition (14C-AMG uptake in CHOK1 cells expressing human SGLT2); assay type: cell-based; conditions: CHOK1 cells expressing human SGLT2; 14C-AMG uptake 0.5 mM, 2 hours at 37° C.; read-out: IC50
T1 construct: expressed in transfected cells; host or cells: CHOK1 (CHO-K1) cells, kept under Geneticin selection
T1 sequence (P31639 1-672): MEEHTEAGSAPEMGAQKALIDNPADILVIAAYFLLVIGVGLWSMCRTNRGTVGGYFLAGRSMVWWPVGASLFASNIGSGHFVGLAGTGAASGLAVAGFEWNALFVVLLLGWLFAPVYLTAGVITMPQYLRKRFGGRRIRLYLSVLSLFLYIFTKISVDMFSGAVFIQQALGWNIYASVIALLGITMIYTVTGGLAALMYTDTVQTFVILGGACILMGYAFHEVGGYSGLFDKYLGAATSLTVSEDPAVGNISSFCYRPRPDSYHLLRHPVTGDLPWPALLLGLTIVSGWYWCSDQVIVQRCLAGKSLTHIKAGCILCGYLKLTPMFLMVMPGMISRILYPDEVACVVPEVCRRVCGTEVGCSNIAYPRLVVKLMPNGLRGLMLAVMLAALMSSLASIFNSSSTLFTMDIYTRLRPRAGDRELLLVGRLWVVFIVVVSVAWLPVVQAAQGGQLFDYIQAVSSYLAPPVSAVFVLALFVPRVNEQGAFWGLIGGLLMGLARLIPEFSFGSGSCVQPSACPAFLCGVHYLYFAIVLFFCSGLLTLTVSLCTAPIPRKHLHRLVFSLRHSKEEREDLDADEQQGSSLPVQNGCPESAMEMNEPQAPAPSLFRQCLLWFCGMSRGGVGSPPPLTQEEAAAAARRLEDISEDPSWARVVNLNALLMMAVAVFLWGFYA
Description: 1. Assay for SGLT2 Inhibition
Compounds described in the above examples were used for the SGLT2 inhibition assay.
CHOK1 cells expressing human SGLT2 were seeded in 24-well plates at a density of 400,000 cells/well in F-12 nutrient mixture (Ham's F-12) containing 10% fetal bovine serum, 400 μg/ml Geneticin, 50 units/ml sodium penicillin G (Gibco-BRL) and 50 μg/ml streptomycin sulfate. […] Test compounds were dissolved in DMSO. The final concentration of DMSO was 0.5%. The transport reaction was initiated by addition of 50 μl [^14C]-methyl-α-D-glucopyranoside (^14C-AMG) solution (final concentration, 0.5 mM). After incubation for 2 hours at 37° C., the uptake was stopped by aspiration of the incubation mixture, the cells were washed three times with ice-cold PBS. Then, cells were solubilized with 0.3 N NaOH and aliquots were taken for determination of radioactivity by a liquid scintillation counter. Nonspecific AMG uptake was defined as that which occurred in the presence of 100 μM of phlorizin, a specific inhibitor of sodium-dependent glucose cotransporter. Specific uptake was normalized for the protein concentrations measured by the method of Bradford.

SMILES	IC50 (human SGLT2) [nM]	melting point [°C]	Urinary glucose (Sprague-Dawley (SD) rats)
OC[C@H]1O[C@@H](c2ccc(Cl)c(Cc3ccc(-c4cccc(F)n4)s3)c2)[C@H](O)[C@@H](O)[C@@H]1O [Example 156]	1.1	–	A (A≧2000 mg)
OC[C@H]1O[C@@H](c2ccc(Cl)c(Cc3ccc(-c4ccc(F)nc4)s3)c2)[C@H](O)[C@@H](O)[C@@H]1O [Example 168, 1-(β-D-glucopyranosyl)-4-chloro-3-(5-(6-fluoro-3-pyridyl)-2-thienylmethyl)benzene]	2.3	–	A (A≧2000 mg)
COc1ccc(-c2ccc(Cc3cc([C@@H]4O[C@H](CO)[C@@H](O)[C@H](O)[C@H]4O)ccc3Cl)s2)cn1 [Example 169, 1-(β-D-glucopyranosyl)-4-chloro-3-(5-(6-methoxy-3-pyridyl)-2-thienylmethyl)benzene]	3.6	–	B (2000 mg>B≧1000 mg)
COc1cccc(-c2ccc(Cc3cc([C@@H]4O[C@H](CO)[C@@H](O)[C@H](O)[C@H]4O)ccc3Cl)s2)n1 [Example 170, 1-(β-D-glucopyranosyl)-4-chloro-3-(5-(6-methoxy-2-pyridyl)-2-thienylmethyl)benzene]	3.5	–	B (2000 mg>B≧1000 mg)
OC[C@H]1O[C@@H](c2ccc(F)c(Cc3ccc(-c4nccs4)s3)c2)[C@H](O)[C@@H](O)[C@@H]1O [Example 190, 1-(β-D-glucopyranosyl)-4-fluoro-3-(5-(2-thiazolyl)-2-thienylmethyl)benzene]	3.1	161.5 to 162	–
OC[C@H]1O[C@@H](c2ccc(Cl)c(Cc3ccc(-c4ccc(F)cn4)s3)c2)[C@H](O)[C@@H](O)[C@@H]1O [Example 194, 1-(β-D-glucopyranosyl)-4-chloro-3-(5-(5-fluoropyridin-2-yl)-2-thienylmethyl)benzene]	2.6	–	A (A≧2000 mg)

Continued, in another order:

IC50 (human SGLT2) [nM]	melting point [°C]	SMILES	Urinary glucose (Sprague-Dawley (SD) rats)
2.5	–	Cc1ccc([C@@H]2O[C@H](CO)[C@@H](O)[C@H](O)[C@H]2O)cc1Cc1ccc(-c2ccc(C#N)cc2)s1 [Example 151]	B (2000 mg>B≧1000 mg)
6.7	–	Cc1ccc([C@@H]2O[C@H](CO)[C@@H](O)[C@H](O)[C@H]2O)cc1Cc1ccc(-c2ccc(F)c(F)c2)s1 [Example 177, 1-(β-D-glucopyranosyl)-3-(5-(3,4-difluorophenyl)-2-thienylmethyl)-4-methylbenzene]	A (A≧2000 mg)
5.1	–	OC[C@H]1O[C@@H](c2ccc(Cl)c(Cc3ccc(-c4cccc(C(F)F)c4)s3)c2)[C@H](O)[C@@H](O)[C@@H]1O [Example 178, 1-(β-D-glucopyranosyl)-4-chloro-3-(5-(3-difluoromethylphenyl)-2-thienylmethyl)benzene]	B (2000 mg>B≧1000 mg)
2.4	127 to 129	N#Cc1cccc(-c2ccc(Cc3cc([C@@H]4O[C@H](CO)[C@@H](O)[C@H](O)[C@H]4O)ccc3F)s2)c1 [Example 189, 1-(β-D-glucopyranosyl)-4-fluoro-3-(5-(3-cyanophenyl)-2-thienylmethyl)benzene]	B (2000 mg>B≧1000 mg)
